Common to all, as to conditions: read-out: DPT
Assay [1] concerns the target T1, human 5-HT2A receptor (h5-HT2AR) (Homo sapiens, UniProt P28223).
T1 construct: gene HTR2A; receptor cDNA (cDNA Resource Center) transiently expressed in HEK293T; with Rluc8-Galphaq, Gbeta3, GFP2-Ggamma9 for function
In words: radioligand competition binding, cell membranes. The text has this: radioligand competition binding, cell membranes on human 5-HT2A receptor (h5-HT2AR)

The target of assay [2] is T2, human 5-HT1A receptor (h5-HT1AR) (Homo sapiens, UniProt P08908).
T2 construct: gene HTR1A; receptor cDNA (cDNA Resource Center) transiently expressed in HEK293T; with Rluc8-Galphai3, Gbeta3, GFP2-Ggamma9 for function
T2 sequence (P08908 whole entry): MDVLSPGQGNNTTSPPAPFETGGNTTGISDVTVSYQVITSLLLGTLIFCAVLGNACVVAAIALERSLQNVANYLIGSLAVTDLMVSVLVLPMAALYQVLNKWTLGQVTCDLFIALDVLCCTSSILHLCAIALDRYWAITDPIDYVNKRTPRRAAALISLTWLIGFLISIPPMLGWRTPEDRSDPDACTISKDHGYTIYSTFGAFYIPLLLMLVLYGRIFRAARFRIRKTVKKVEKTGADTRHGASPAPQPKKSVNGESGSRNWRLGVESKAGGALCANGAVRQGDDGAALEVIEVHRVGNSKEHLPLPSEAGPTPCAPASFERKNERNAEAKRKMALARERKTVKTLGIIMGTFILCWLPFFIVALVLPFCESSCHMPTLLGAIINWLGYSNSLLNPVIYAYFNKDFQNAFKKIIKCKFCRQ
In words: radioligand competition binding, cell membranes. The text has this: radioligand competition binding, cell membranes on human 5-HT1A receptor (h5-HT1AR)

Assay [3] addresses T1, human 5-HT2A receptor (h5-HT2AR). In words: TRUPATH BRET2 G protein activation assay, HEK293T. The format is cell-based. The text has this: TRUPATH BRET2 G protein activation assay, HEK293T on human 5-HT2A receptor (h5-HT2AR)
Assay [4] has as its target T3, human 5-HT1B receptor (h5-HT1BR) (Homo sapiens, UniProt P28222).
T3 construct: gene HTR1B; receptor cDNA (cDNA Resource Center) transiently expressed in HEK293T; with Rluc8-Galphai3, Gbeta3, GFP2-Ggamma9 for function
In words: TRUPATH BRET2 G protein activation assay, HEK293T. The class given is cell-based. The text has this: TRUPATH BRET2 G protein activation assay, HEK293T on human 5-HT1B receptor (h5-HT1BR)

Assay [5] deals with T2, human 5-HT1A receptor (h5-HT1AR). In words: TRUPATH BRET2 G protein activation assay, HEK293T. The format is cell-based. The text has this: TRUPATH BRET2 G protein activation assay, HEK293T on human 5-HT1A receptor (h5-HT1AR)
Assay [6] concerns the target T3, human 5-HT1B receptor (h5-HT1BR). Briefly: radioligand competition binding, cell membranes. The text has this: radioligand competition binding, cell membranes on human 5-HT1B receptor (h5-HT1BR)
For orientation: Loss of bound radioactivity is the signal in a displacement assay; it reports binding, not function.

Molecules are shown by their SMILES.

T3 sequence (P28222 whole entry): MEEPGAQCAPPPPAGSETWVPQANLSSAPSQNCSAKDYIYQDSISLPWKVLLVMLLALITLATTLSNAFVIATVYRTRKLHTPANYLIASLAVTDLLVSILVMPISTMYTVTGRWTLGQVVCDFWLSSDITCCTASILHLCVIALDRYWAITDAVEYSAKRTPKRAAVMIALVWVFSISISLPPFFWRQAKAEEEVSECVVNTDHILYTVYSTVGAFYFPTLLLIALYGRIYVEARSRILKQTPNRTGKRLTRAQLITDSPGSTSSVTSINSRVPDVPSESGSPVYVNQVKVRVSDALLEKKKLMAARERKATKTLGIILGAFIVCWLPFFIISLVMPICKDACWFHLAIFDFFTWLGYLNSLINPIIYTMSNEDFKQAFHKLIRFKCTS
T1 sequence (P28223 whole entry): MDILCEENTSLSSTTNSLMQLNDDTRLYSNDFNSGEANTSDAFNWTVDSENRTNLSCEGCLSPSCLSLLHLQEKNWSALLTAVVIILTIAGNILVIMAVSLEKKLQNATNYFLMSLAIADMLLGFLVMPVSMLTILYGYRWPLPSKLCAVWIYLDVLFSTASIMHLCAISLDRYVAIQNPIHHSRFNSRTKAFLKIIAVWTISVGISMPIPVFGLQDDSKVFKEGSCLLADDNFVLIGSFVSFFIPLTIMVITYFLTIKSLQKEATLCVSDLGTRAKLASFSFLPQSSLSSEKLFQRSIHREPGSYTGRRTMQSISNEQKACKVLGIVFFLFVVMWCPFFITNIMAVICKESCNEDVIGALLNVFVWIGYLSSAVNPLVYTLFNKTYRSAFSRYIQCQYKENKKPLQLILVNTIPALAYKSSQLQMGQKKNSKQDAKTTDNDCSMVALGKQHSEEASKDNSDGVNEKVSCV

With `CCCN(CCC)CCc1c[nH]c2ccccc12` [DPT], the Ki is 3 nM in assay [1], 1640 nM in assay [2] and 8.08 µM in assay [6]. Moreover, the EC50 in assay [3] came to 451 nM; in assay [4] it was 1210 nM; in assay [5] it was 2430 nM.
